# Values quoted from earlier work in US20040128703A1, “Methods and compositions for the generation of humanized mice” (priority 2002, published 2004).
# Where two headings read alike, the source gives them in different places.
# Assays:
# human PXR [1] = target: T1, human PXR (Homo sapiens, UniProt O75469); details: human PXR transfected into rat hepatocytes
# T1 sequence (O75469 1-434): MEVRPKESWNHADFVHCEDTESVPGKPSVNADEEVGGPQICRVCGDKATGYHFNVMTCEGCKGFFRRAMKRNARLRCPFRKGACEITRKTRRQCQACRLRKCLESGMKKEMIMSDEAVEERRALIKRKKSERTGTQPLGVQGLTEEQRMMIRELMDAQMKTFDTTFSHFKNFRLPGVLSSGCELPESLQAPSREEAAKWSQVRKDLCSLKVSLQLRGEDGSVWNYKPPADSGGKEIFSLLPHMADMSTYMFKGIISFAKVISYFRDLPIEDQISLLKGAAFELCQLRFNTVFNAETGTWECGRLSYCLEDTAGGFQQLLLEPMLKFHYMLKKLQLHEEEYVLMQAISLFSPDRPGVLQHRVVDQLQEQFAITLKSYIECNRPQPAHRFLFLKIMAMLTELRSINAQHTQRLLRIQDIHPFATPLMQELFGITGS
# [2] = system: CYP3A expression in rat hepatocytes
# human PXR [3] = target: T1, human PXR; details: transgenic mice, native PXR partially deleted, human PXR gene targeted to the liver
Compound,P-glycoprotein induction (P-glycoprotein),CYP3A expression in rat hepatocytes transfected with human PXR (human PXR [1]),effect on CYP3A expression in rat hepatocytes [2],CYP3A4 expression in human liver (CYP3A4 expression),other results
CCOP(=O)(OCC)C(=Cc1cc(C(C)(C)C)c(O)c(C(C)(C)C)c1)P(=O)(OCC)OCC [SR12813],induced,,,,
CCC1(c2ccccc2)C(=O)NC(=O)NC1=O [phenobarbital],,able to stimulate CYP3A expression,no effect,stimulate CYP3A4 expression,
Clc1ccccc1C(c1ccccc1)(c1ccccc1)n1ccnc1 [clotrimazole],,able to stimulate CYP3A expression,no effect,stimulate CYP3A4 expression,CYP3A expression in the mouse (human PXR [3]): induced CYP3A expression
O=C(O)c1cn(C2CC2)c2cc(N3CCNCC3)c(F)cc2c1=O [Ciprofloxacin],,,,,"susceptibility of bacteria (gram-negative bacilli; 1994, US): 86%; susceptibility of bacteria (gram-negative bacilli; 2000, US): 76%"
CC(=O)O[C@H]1C(=O)[C@@]2(C)[C@H]([C@H](OC(=O)c3ccccc3)[C@]3(O)C[C@H](OC(=O)[C@H](O)[C@@H](NC(=O)c4ccccc4)c4ccccc4)C(C)=C1C3(C)C)[C@]1(OC(C)=O)CO[C@@H]1C[C@@H]2O [Taxol],induced,,,,
